Reference: patent US6602905B1, “N-acyl homoserine lactones for the treatment of cardiac tachyarrhythmias, ischaemic heart disease or congestive heart failure” (The University of Nottingham, priority 1999, dated 2003)

How the values were obtained:
Male rats (Long Evans) [1] = assay: Cardiovascular variables in conscious, freely moving instrumented rats after intravenous injection; assay type: in vivo, rat; details: vs vehicle; for effect on the heart rate / effect on the mean arterial blood pressure: 10 mg per kg body weight i.v. in acetonitrile/dextrose
Method: (§1) Male rats (Long Evans) of body mass in the range of from 350 to 450 g were used in the experiments.
(§2) The rats were instrumented with probes to monitor blood flow in renal, mesenteric and hindquarters vascular beds and with catheters to measure blood pressure and heart rate and to administer substances intravenously.
(§3) Measurements of the cardiovascular variables were made in the test rats which were conscious and able to move freely during the duration of the test procedure (10 minutes). The raw data were sampled (every 2 ms), averages were calculated (per cardiac cycle) and the data was stored to diskette (every 5 s). The stored data was analysed off line.
The following substances were administered by intravenous injection to the test rats.
1) vehicle only (100 μl of 50:50 acetonitrile:dextrose)
2) 10 mg per kg body weight of N-(3-oxododecanoyl)homoserine lactone (OdDHL; Formula I; n=2, Y=X=O, R=3-oxododecanoyl). The OdDHL was dissolved in acetonitrile/dextrose (50 μl:50 μl) 100 μl.
3) vehicle only (100 μl of 50:50 acetonitrile:dextrose)
4) 10 mg per kg body weight of N-(3-oxoundecanoyl)homoserine lactone (OuDHL; Formula I; n=2, Y=X=O, R=3-oxoundecanoyl).
The OuDHL was dissolved in acetonitrile/dextrose (50 μl:50 μl) 100 μl.

Male rats (Long Evans) [2] = assay: Cardiovascular variables in conscious rats after cardiac autonomic blockade with atenolol + atropine; assay type: in vivo, rat; details: 10 mg per kg i.v. after earlier administration of atenolol and atropine
Method: as §1, §2, §3
The following substances were administered intravenously to the test rats.
1) As in 2) in Experiment I above (∘)
2) Atenolol +atropine then as in 2) in Experiment I above (●).

Row | SMILES | effect on the heart rate (Male rats (Long Evans) [1]) | effect on the mean arterial blood pressure (Male rats (Long Evans) [1]) | blood flow, particularly in the mesenteric and hindquarters (Male rats (Long Evans) [1]; 10 mg per kg body weight i.v.) | bradycardia (heart rate) after cardiac autonomic blockade (Male rats (Long Evans) [2])
1 | CCCCCCCCCC(=O)CC(=O)N[C@H]1CCOC1=O [OdDHL, N-(3-oxododecanoyl)homoserine lactone] | profound bradycardia | substantially no change | reduced | not observed
2 | CCCCCCCCC(=O)CC(=O)NC1CCOC1=O (stereo not drawn) [OuDHL, N-(3-oxoundecanoyl)homoserine lactone] | marked bradycardia | substantially no change | – | –
